Laboratory results as given in ChEMBL document CHEMBL3044554, “Comparison of Phytotoxicities between 4-Fluorinated and Non-fluorinated 2-Chloro-5-(3, 4, 5, 6-tetrahydrophthalimido)benzoates” (J Pestic Sci, 1999).

How the values were obtained:
Conditions in all cases: read-out: pI50 (converted)
[1] = tested on: Scenedesmus acutus; test: Growth inhibition of Scenedesmus acutus assessed as changes in packed cell volume; type: functional, organism-based
[2] = tested on: Scenedesmus acutus; test: Phytotoxicity against Scenedesmus acutus assessed as reduction in chlorophyll content by spectroscopy; type: functional, organism-based
[3] = tested on: Scenedesmus acutus; test: Peroxidizing phytotoxicity against Scenedesmus acutus assessed as ethane production after 20 hr; type: functional, organism-based
[4] = target: T1, Protoporphyrinogen IX oxidase (Zea mays, UniProt Q9FYV8); test: Inhibition of protoporphyrinogen IX oxidase in Zea mays cv. Anjou (maize) seedlings homogenates assessed as protoporphyrinogen IX formation by spectrophotometry
T1 sequence (Q9FYV8 whole entry): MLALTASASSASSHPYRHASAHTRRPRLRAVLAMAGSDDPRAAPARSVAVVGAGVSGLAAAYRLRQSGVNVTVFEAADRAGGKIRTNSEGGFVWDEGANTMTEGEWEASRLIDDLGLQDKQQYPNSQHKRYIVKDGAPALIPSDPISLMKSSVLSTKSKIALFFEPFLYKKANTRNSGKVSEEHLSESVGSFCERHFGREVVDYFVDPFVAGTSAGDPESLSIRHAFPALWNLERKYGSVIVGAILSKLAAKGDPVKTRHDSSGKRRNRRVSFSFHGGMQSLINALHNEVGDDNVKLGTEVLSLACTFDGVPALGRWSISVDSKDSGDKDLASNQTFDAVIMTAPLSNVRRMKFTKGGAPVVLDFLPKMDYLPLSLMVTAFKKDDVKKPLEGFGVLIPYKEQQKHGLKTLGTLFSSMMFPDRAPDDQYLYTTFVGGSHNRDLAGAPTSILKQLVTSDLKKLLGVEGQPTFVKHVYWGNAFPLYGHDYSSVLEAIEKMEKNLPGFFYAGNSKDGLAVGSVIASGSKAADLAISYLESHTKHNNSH

| SMILES | IC50 [4] [nM] | IC50 [1] [nM] | IC50 [2] [nM] | IC50 [3] [nM] |
| --- | --- | --- | --- | --- |
| O=C1C2=C(CCCC2)C(=O)N1c1ccc(Cl)cc1F | 3.72 | 37.2 | 24.5 | 240 |
| CCCCCCCCOC(=O)c1cc(N2C(=O)C3=C(CCCC3)C2=O)ccc1Cl | 25.1 | > 100000 | > 100000 | > 100000 |
| COC(=O)c1cc(Oc2ccc(C(F)(F)F)cc2Cl)ccc1[N+](=O)[O-] [ACIFLUORFEN-METHYL] | 2.19 | 70.8 | 61.7 | 23.4 |
| CCOC(=O)c1cc(N2C(=O)C3=C(CCCC3)C2=O)ccc1Cl | 3.72 | 1910 | 1380 | 2140 |
| C#CCOc1cc(N2C(=O)C3=C(CCCC3)C2=O)ccc1Cl | – | 100 | 79.4 | 537 |
| CCC(C)OC(=O)c1cc(N2C(=O)C3=C(CCCC3)C2=O)ccc1Cl (configuration not stated) | 2.51 | 1100 | 794 | 9770 |
| CC(C)OC(=O)c1cc(N2C(=O)C3=C(CCCC3)C2=O)c(F)cc1Cl | 1.38 | 13.8 | 57.5 | 89.1 |
| CCCCCOC(=O)c1cc(N2C(=O)C3=C(CCCC3)C2=O)ccc1Cl | 7.59 | 4470 | 9330 | 5370 |
| O=C(O)c1cc(Oc2ccc(C(F)(F)F)cc2Cl)ccc1[N+](=O)[O-] [ACIFLUORFEN] | 200 | 5750 | 1860 | 1020 |
| CCCOC(=O)c1cc(N2C(=O)C3=C(CCCC3)C2=O)ccc1Cl | 2.19 | 1120 | 1860 | 661 |
| CCCOC(=O)c1cc(N2C(=O)C3=C(CCCC3)C2=O)c(F)cc1Cl | 3.89 | 33.1 | 89.1 | 66.1 |
| CCC(C)OC(=O)c1cc(N2C(=O)C3=C(CCCC3)C2=O)c(F)cc1Cl (configuration not stated) | 2.63 | 60.3 | 24.5 | 74.1 |
| CCCCOC(=O)c1cc(N2C(=O)C3=C(CCCC3)C2=O)ccc1Cl | 9.12 | 6310 | 3550 | 7760 |
| C#CCOc1cc(N2C(=O)C3=C(CCCC3)C2=O)c(F)cc1Cl | 1.82 | 15.8 | 15.8 | 141 |
| CC(C)OC(=O)c1cc(N2C(=O)C3=C(CCCC3)C2=O)ccc1Cl | – | 1230 | 1000 | 182 |
| O=C1C2=C(CCCC2)C(=O)N1c1ccc(Cl)cc1 [CHLOROPHTHALIUM] | – | 100 | 79.4 | 912 |

Continued, in another order:

| IC50 [4] [nM] | SMILES | IC50 [1] [nM] | IC50 [2] [nM] | IC50 [3] [nM] |
| --- | --- | --- | --- | --- |
| 8.91 | CCCCOC(=O)c1cc(N2C(=O)C3=C(CCCC3)C2=O)c(F)cc1Cl | 126 | 67.6 | 141 |
| 28.2 | CC(C)(C)OC(=O)c1cc(N2C(=O)C3=C(CCCC3)C2=O)ccc1Cl | 81300 | 12900 | > 100000 |
| 8.91 | COC(=O)c1cc(N2C(=O)C3=C(CCCC3)C2=O)ccc1Cl | 1780 | 2000 | 1620 |
| 4.79 | CC(C)COC(=O)c1cc(N2C(=O)C3=C(CCCC3)C2=O)ccc1Cl | 977 | 759 | 15500 |
| 4.9 | CC(C)COC(=O)c1cc(N2C(=O)C3=C(CCCC3)C2=O)c(F)cc1Cl | 100 | 33.1 | 407 |
| 11.2 | COC(=O)c1cc(N2C(=O)C3=C(CCCC3)C2=O)c(F)cc1Cl | 67.6 | 110 | 170 |
| 380 | O=C(O)c1cc(N2C(=O)C3=C(CCCC3)C2=O)c(F)cc1Cl | 1000 | 759 | 3160 |
| 4.17 | CCOC(=O)c1cc(N2C(=O)C3=C(CCCC3)C2=O)c(F)cc1Cl | 57.5 | 100 | 87.1 |
| 1860 | O=C(O)c1cc(N2C(=O)C3=C(CCCC3)C2=O)ccc1Cl | > 100000 | > 100000 | > 100000 |
